Data taken from publication PMC9569790, “From Solution Studies of Pharmaceuticals (Aspirin and Related Compounds) to the Thermodynamics of Aspirin-β-Cyclodextrin Interaction in water and N,N-Dimethylformamide” (International Journal of Molecular Sciences, 2022).
Read-outs that look alike come from different tables or passages of the source.

What was measured:
[1] = Solubility measurements (gravimetric analysis of saturated solutions) in water; assay type: physicochemical
Description: (§1) The mixtures were left in a thermostatic bath at 298.15 K until equilibrium was reached. Aliquots of the saturated solutions were removed and analyzed gravimetrically by taking a known volume of sample, evaporating the solvent and then weighing the solid in a dry atmosphere. The weighing process was repeated until a constant weight was obtained. The analytical determination was carried out in triplicate on the same equilibrium mixture. Solvate formation was tested by storing the compounds over water or DMF in a desiccator containing an atmosphere saturated with the appropriate solvent over a period of at least four days.

[2] = Conductance measurements in water; assay type: physicochemical; details: for Ionic conductivity at infinite dilution of the anion, λA^−: from Λ^0m and λH^+ = 349.8
Description: H^+ (aq) + A^− (aq) ⇌ HA (aq)(1)
The ion-pair formation constant for the process described by Equation (1) is expressed in terms of activities, a, as shown in Equation (2): (2) Kip=aHA/aH^+∗aA^−=HA∗γHA/H^+∗[A^−]∗γ±i^2
The conductivity cell constant was determined by the method of Jones and Bradshaw [39] as previously reported [24]. Conductance measurements were performed using the Wayne Kerr Autobalance Universal Bridge, type B642, and the Wayne Kerr Model 7330 Automatic LCR Meter Conductivity Bridge at a frequency of 1 Hz. […] Conductance readings at 298.15 K were recorded after each addition.

[3] = Calorimetric enthalpies of solution in water; assay type: physicochemical; details: 298.15 K; for ΔsH^0, standard enthalpy of solution: average of the ΔsH values
Text: No measurements could be carried out at higher concentrations since the dissolution rate of this compound in water was relatively slow. […] Since there were no systematic changes in the ΔsH values with changes in the concentration of solute, the standard ΔsH^0 value reported in Table 3 is the average value. In the dissolution of a solute in water or any other solvent, there are two processes involved, as described in Equation (5):ΔsH^0 = ΔclH^0 + ΔsolvH^0(5)
(§2) The reliability of the calorimeter was checked by carrying out the standard reaction based on the protonation of an aqueous solution of tris-(hydroxymethyl)aminomethane (THAM) with an aqueous solution of hydrochloric acid (0.1 mol dm^−3) at 298.15 K (Equation (11)). H2NC(CH2OH)3(aq) + H3O+ (aq) → H3N+C(CH2OH)3(aq) + H2O(aq)(11)
(§3) The system was then placed in a water bath until thermal equilibrium was attained, after which the ampoule was broken into the solvent and the process was monitored by the chart recorder. The observed heat was corrected for the heat of the breaking of the empty ampoule in the solvent. The standard enthalpy of the solution, ∆sH^0, was found from […].

[4] = Calorimetric enthalpies of solution in DMF; assay type: physicochemical; details: 298.15 K; for ΔsH^0, standard enthalpy of solution: average of the ΔsH values
Text: All observed heats were corrected for the heat from breaking the empty ampoules in DMF (Q = −0.0518 J). Since there were no systematic changes in the ΔsH values with changes in the concentration of the solute, the reported standard ΔsH^0 values are the average values of the data reported in Table 5. This table also includes the standard deviations of the data.
as §2, §3

[5] = Gibbs free energy and entropies of solution in water, corrected for ion-pair formation; assay type: physicochemical; details: 298.15 K; for pKsp: corrected for ion-pair formation; for ΔsG^0, standard Gibbs energy of solution: standard state 1 mol dm^−3
Text: In Equation (2), concentrations are in mol dm^−3, and γ ± i^2 is the mean molar ionic coefficient calculated by the use of the Debye–Hückel equation, where γHA is the activity coefficient of the un-ionized species. In very dilute solutions, γHA may be considered equal to unity. As far as the standard Gibbs energy of the solution in the standard state of 1 mol dm^−3, ∆sG^0, is concerned, the application of Equation (3) requires knowledge of the ion-pair formation constant in solution. The availability of Kip and solubilities in water allows the calculation the ionic molar concentration, ci, and the molar concentration of ion pairs, cip, as previously shown. The data refer to the standard state (1 mol dm^−3). ΔsG^0= −RTln (ci^2 * γ±i^2)(3)
In Equation (6), aH^+ and aA^− represent the activities of the species H^+ and A^− in solution respectively. The activity of the solid is unity by convention. The activity, a, on the molar scale (mol dm^−3) is related to the ionic molar concentration, ci, by the mean molar ionic activity coefficient, γ ± i.
Thus:K^0sp = ci^2 ∗ γ ± i^2 (7)
The availability of Gibbs energy (Equation (3)) and enthalpy values allows the calculation of the entropy of solution, ΔsS. For this purpose, the following equation was used.

[6] = Transfer thermodynamic parameters from water to DMF; assay type: physicochemical; details: 298.15 K
Text: As mentioned earlier, ΔsH^0 is made by the contribution of the crystal lattice enthalpy and the solvation enthalpy. In order to remove the contribution of the crystal lattice process, it is a common practice to calculate the transfer thermodynamic parameters according to the following process: […]

[7] = Solvate formation test in a solvent-saturated atmosphere; assay type: physicochemical; details: water
Description: as §1

[8] = water, same temperature, conductimetry; cited from earlier work

## CC(=O)c1ccc(O)c(C(=O)O)c1 [5-acetylsalicylic acid]
[1]
  Solubility, S: (3.46 ± 0.22) ∗ 10^−3 mol dm^−3
[2]
  pKa: 3.04
[2]; water, 298.15 K
  Ka, dissociation constant: 9.09 × 10^−4
  Kip, ion-pair formation constant: 11 × 10^2
  Λ^0m, molar conductance at infinite dilution: 389 S cm^2 mol^−1
[3]
  ΔsH^0, standard enthalpy of solution: 6.74 kcal/mol
[3]; listed as 5-Acetylsalicylic Acid
  ΔsH^0, standard enthalpy of solution: ΔsH^0 = 28.2 ± 0.3 kJ mol^−1
[3]; c = 2.58 × 10^−4 mol dm^−3
  ΔsH, enthalpy of solution: 6.862 kcal/mol
[3]; c = 2.66 × 10^−4 mol dm^−3
  ΔsH, enthalpy of solution: 6.795 kcal/mol
[3]; c = 4.49 × 10^−4 mol dm^−3
  ΔsH, enthalpy of solution: 6.74 kcal/mol
[3]; c = 6.67 × 10^−4 mol dm^−3
  ΔsH, enthalpy of solution: 6.663 kcal/mol
[3]; c = 7.05 × 10^−4 mol dm^−3
  ΔsH, enthalpy of solution: 6.807 kcal/mol
[3]; c = 8.05 × 10^−4 mol dm^−3
  ΔsH, enthalpy of solution: 6.673 kcal/mol
[4]
  ΔsH^0, standard enthalpy of solution: 1.63 ± 0.048 kcal/mol
[4]; c = 1.11 × 10^−3 mol dm^−3
  ΔsH, enthalpy of solution: 1.58 kcal/mol
[4]; c = 1.45 × 10^−3 mol dm^−3
  ΔsH, enthalpy of solution: 1.59 kcal/mol
[4]; c = 1.76 × 10^−3 mol dm^−3
  ΔsH, enthalpy of solution: 1.57 kcal/mol
[4]; c = 2.07 × 10^−3 mol dm^−3
  ΔsH, enthalpy of solution: 1.59 kcal/mol
[4]; c = 2.18 × 10^−3 mol dm^−3
  ΔsH, enthalpy of solution: 1.69 kcal/mol
[4]; c = 2.38 × 10^−3 mol dm^−3
  ΔsH, enthalpy of solution: 1.66 kcal/mol
[5]
  ΔsS^0, entropy of solution: −15 J K^−1 mol^−1
  pKsp: 5.74
  ΔsG^0, standard Gibbs energy of solution: 7.82 kcal/mol
[6]
  ΔtH^0, enthalpy of transfer: -5.11 kcal/mol
[7]
  Solvate formation: not detected

## CC(=O)Oc1ccc(C(=O)O)cc1 [4-acetoxybenzoic acid]
[2]; water, 298.15 K
  Ka, dissociation constant: 4.55 × 10^−5
  Kip, ion-pair formation constant: 22 × 10^3
  Λ^0m, molar conductance at infinite dilution: 401 S cm^2 mol^−1
[2]; water, 298.15 K, conductance, read-out: pKa
  pKa: 4.34
[3]
  ΔsH^0, standard enthalpy of solution: 4.78 kcal/mol
[3]; listed as 4-Acetoxybenzoic Acid
  ΔsH^0, standard enthalpy of solution: ΔsH^0 = 20 ± 1 kJ mol^−1
[3]; c = 4.51 × 10^−4 mol dm^−3
  ΔsH, enthalpy of solution: 4.52 kcal/mol
[3]; c = 4.57 × 10^−4 mol dm^−3
  ΔsH, enthalpy of solution: 4.381 kcal/mol
[3]; c = 4.66 × 10^−4 mol dm^−3
  ΔsH, enthalpy of solution: 4.84 kcal/mol
[3]; c = 4.90 × 10^−4 mol dm^−3
  ΔsH, enthalpy of solution: 4.902 kcal/mol
[3]; c = 6.17 × 10^−4 mol dm^−3
  ΔsH, enthalpy of solution: 4.928 kcal/mol
[3]; c = 6.75 × 10^−4 mol dm^−3
  ΔsH, enthalpy of solution: 5.017 kcal/mol
[4]
  ΔsH^0, standard enthalpy of solution: 0.932 ± 0.024 kcal/mol
[4]; c = 1.03 × 10^−3 mol dm^−3
  ΔsH, enthalpy of solution: 0.93 kcal/mol
[4]; c = 1.18 × 10^−3 mol dm^−3
  ΔsH, enthalpy of solution: 0.98 kcal/mol
[4]; c = 1.26 × 10^−3 mol dm^−3
  ΔsH, enthalpy of solution: 0.949 kcal/mol
[4]; c = 1.60 × 10^−3 mol dm^−3
  ΔsH, enthalpy of solution: 0.954 kcal/mol
[4]; c = 1.82 × 10^−3 mol dm^−3
  ΔsH, enthalpy of solution: 0.908 kcal/mol
[5]
  ΔsS^0, entropy of solution: −58 J K^−1 mol^−1
  pKsp: 6.57
  ΔsG^0, standard Gibbs energy of solution: 8.96 kcal/mol
[6]
  ΔtH^0, enthalpy of transfer: -3.85 kcal/mol
[7]
  Solvate formation: not detected
[8]
  pKa (literature): 4.38

## CC(=O)c1ccc(O)c(C(=O)O)c1 [5-acetylsalicylate]
[2]; water, 298.15 K
  Ionic conductivity at infinite dilution of the anion, λA^−: 39.2 S cm^2 mol^−1

## CC(=O)Oc1ccccc1C(=O)O [acetylsalicylate]
[2]; water, 298.15 K
  Ionic conductivity at infinite dilution of the anion, λA^−: 42.2 S cm^2 mol^−1
